target: human adenosine A2a receptor (Homo sapiens (Human), UniProt P29274); assay: A2a receptor binding affinity, [3H]-NECA radioligand binding test; conditions: [3H]-NECA 37 nM; membrane from HEK-293 cells transfected with human adenosine A2a receptor
How it was run: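 Membranes from HEK-293 cells expressing human A2a receptor were incubated with [3H]-NECA (final 37 nM) and compound for 1 h at room temperature in 50 mM Tris, 10 mM MgCl2, 1 mM EDTA, pH 7.4. Bound ligand was filtered on PEI-coated plates and counted by scintillation to derive IC50 (μM).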

human adenosine A2a receptor, sequence (P29274 whole entry): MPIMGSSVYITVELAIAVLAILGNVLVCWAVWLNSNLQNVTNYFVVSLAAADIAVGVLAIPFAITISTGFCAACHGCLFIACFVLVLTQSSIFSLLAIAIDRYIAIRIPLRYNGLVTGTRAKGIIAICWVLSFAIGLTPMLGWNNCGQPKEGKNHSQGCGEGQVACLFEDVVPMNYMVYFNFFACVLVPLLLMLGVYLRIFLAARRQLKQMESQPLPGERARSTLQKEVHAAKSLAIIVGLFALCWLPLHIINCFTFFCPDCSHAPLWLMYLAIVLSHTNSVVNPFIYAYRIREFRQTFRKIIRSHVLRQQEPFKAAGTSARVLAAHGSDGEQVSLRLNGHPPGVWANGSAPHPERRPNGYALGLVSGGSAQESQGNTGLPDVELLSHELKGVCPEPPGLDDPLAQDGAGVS

Point of comparison: `CCOC(=O)c1ccc(N2CCN(C(=O)[C@@H]3CCCN3c3nc(N)n4nc(-c5ccco5)nc4n3)CC2)cc1` [Example 123, Ethyl 4-(4-((7-amino-2-(furan-2-yl)-[1,2,4]triazolo[1,5-a][1,3,5]triazin-5-yl)-L-prolyl)piperazin-1-yl)benzoate], IC50 0.5 nM. Against it:
- CCC(O)(CC)CN1CCN(C(=O)[C@@H]2CCCN2c2nc(N)n3nc(-c4ccc(C)o4)nc3n2)CC1 [Example 88, (S)-(1-(7-amino-2-(5-methylfuran-2-yl)-[1,2,4]triazolo[1,5-a][1,3,5]triazin-5-yl)pyrrolidin-2-yl)(4-(2-ethyl-2-hydroxybutyl)piperazin-1-yl) methanone] — 24-fold higher, 12 nM
- Cc1ccc(-c2nc3nc(N4CCC[C@H]4C(=O)N4CCN(CC(F)(F)F)CC4)nc(N)n3n2)o1 [Example 89, (S)-(1-(7-amino-2-(5-methylfuran-2-yl)-[1,2,4]triazolo[1,5-a][1,3,5]triazin-5-yl)pyrrolidin-2-yl)(4-(2,2,2-trifluoroethyl)piperazin-1-yl)methanone] — 34-fold higher, 17 nM
- Cc1ccc(-c2nc3nc(N4CCC[C@H]4C(=O)N4CCN(CC(C)(C)F)CC4)nc(N)n3n2)o1 [Example 90, (S)-(1-(7-amino-2-(5-methylfuran-2-yl)-[1,2,4]triazolo[1,5-a][1,3,5]triazin-5-yl)pyrrolidin-2-yl)(4-(2-fluoro-2-methylpropyl)piperazin-1-yl)methanone] — 16-fold higher, 8 nM
- COCCN1CCN(C(=O)[C@@H]2CCCN2c2nc(N)n3nc(-c4ccc(C)o4)nc3n2)CC1 [Example 91, (S)-(1-(7-amino-2-(5-methylfuran-2-yl)-[1,2,4]triazolo[1,5-a][1,3,5]triazin-5-yl)pyrrolidin-2-yl)(4-(2-methoxyethyl)piperazin-1-yl)methanone] — 14-fold higher, 7 nM
- COCCN1CCN(C(=O)[C@H]2CCCN2c2nc(N)n3nc(-c4ccco4)nc3n2)CC1 [Example 92, (R)-(1-(7-amino-2-(furan-2-yl)-[1,2,4]triazolo[1,5-a][1,3,5]triazin-5-yl)pyrrolidin-2-yl)(4-(2-methoxyethyl)piperazin-1-yl)methanone] — 4600-fold higher, 2290 nM
- CC(C)(F)CN1CCN(C(=O)[C@H]2CCCN2c2nc(N)n3nc(-c4ccco4)nc3n2)CC1 [Example 93, (R)-(1-(7-amino-2-(furan-2-yl)-[1,2,4]triazolo[1,5-a][1,3,5]triazin-5-yl)pyrrolidin-2-yl)(4-(2-fluoro-2-methylpropyl)piperazin-1-yl)methanone] — 7600-fold higher, 3790 nM
- Nc1nc(N2CCC[C@@H]2C(=O)N2CCN(CC(F)(F)F)CC2)nc2nc(-c3ccco3)nn12 [Example 94, (R)-(1-(7-amino-2-(furan-2-yl)-[1,2,4]triazolo[1,5-a][1,3,5]triazin-5-yl)pyrrolidin-2-yl)(4-(2,2,2-trifluoroethyl)piperazin-1-yl)methanone] — 8800-fold higher, 4390 nM
- Nc1nc(N2CCC[C@@H]2C(=O)N2CCN(Cc3ccccc3)CC2)nc2nc(-c3ccco3)nn12 [Example 95, (R)-(1-(7-amino-2-(furan-2-yl)-[1,2,4]triazolo[1,5-a][1,3,5]triazin-5-yl)pyrrolidin-2-yl)(4-benzylpiperazin-1-yl)methanone] — 10000-fold higher, 4990 nM
- Nc1nc(N2CCC[C@@H]2C(=O)N2CCN(Cc3ccc(F)cc3F)CC2)nc2nc(-c3ccco3)nn12 [Example 96, (R)-(1-(7-amino-2-(furan-2-yl)-[1,2,4]triazolo[1,5-a][1,3,5]triazin-5-yl)pyrrolidin-2-yl)(4-(2,4-difluorobenzyl)piperazin-1-yl)methanone] — 3300-fold higher, 1630 nM
- Nc1nc(N2CCC[C@@H]2C(=O)N2CCN(c3ccc(F)cc3F)CC2)nc2nc(-c3ccco3)nn12 [Example 97, (R)-(1-(7-amino-2-(furan-2-yl)-[1,2,4]triazolo[1,5-a][1,3,5]triazin-5-yl)pyrrolidin-2-yl)(4-(2,4-difluorophenyl)piperazin-1-yl)methanone] — 6700-fold higher, 3350 nM
- Nc1nc(N2CCC[C@@H]2C(=O)N2CCN(C(=O)c3ccccc3)CC2)nc2nc(-c3ccco3)nn12 [Example 98] — 23000-fold higher, 11300 nM
- Nc1nc(N2CCC[C@@H]2C(=O)N2CCN(C(=O)Nc3ccccc3)CC2)nc2nc(-c3ccco3)nn12 [Example 100] — 19000-fold higher, 9460 nM
- Cn1cnc(C(=O)N2CCN(C(=O)[C@@H]3CCCN3c3nc(N)n4nc(-c5ccco5)nc4n3)CC2)c1 [Example 102] — 20-fold higher, 10 nM
- Cc1cnc(C(=O)N2CCN(C(=O)[C@@H]3CCCN3c3nc(N)n4nc(-c5ccco5)nc4n3)CC2)s1 [Example 103] — 12-fold higher, 6 nM
- Cc1ncc(C(=O)N2CCN(C(=O)[C@@H]3CCCN3c3nc(N)n4nc(-c5ccco5)nc4n3)CC2)s1 [Example 104] — 22-fold higher, 11 nM
- Nc1nc(N2CCC[C@H]2C(=O)N2CCN(C(=O)c3cscn3)CC2)nc2nc(-c3ccco3)nn12 [Example 105] — 6-fold higher, 3 nM
- Nc1nc(N2CCC[C@H]2C(=O)N2CCN(C(=O)C3CCS(=O)(=O)CC3)CC2)nc2nc(-c3ccco3)nn12 [Example 106] — 14-fold higher, 7 nM
- COCCN1CCN(C(=O)[C@@H]2CCN2c2nc(N)n3nc(-c4ccco4)nc3n2)CC1 [Example 107, (S)-(1-(7-amino-2-(furan-2-yl)-[1,2,4]triazolo[1,5-a][1,3,5]triazin-5-yl)azetidin-2-yl)(4-(2-methoxyethyl)piperazin-1-yl) methanone] — 18-fold higher, 9 nM
- CC(C)(F)CN1CCN(C(=O)[C@@H]2CCN2c2nc(N)n3nc(-c4ccco4)nc3n2)CC1 [Example 108, (S)-(1-(7-amino-2-(furan-2-yl)-[1,2,4]triazolo[1,5-a][1,3,5]triazin-5-yl)azetidin-2-yl)(4-(2-fluoro-2-methylpropyl)piperazin-1-yl)methanone] — 18-fold higher, 9 nM
- Nc1nc(N2CC[C@H]2C(=O)N2CCN(C(=O)c3ccccc3)CC2)nc2nc(-c3ccco3)nn12 [Example 109, (S)-(1-(7-amino-2-(furan-2-yl)-[1,2,4]triazolo[1,5-a][1,3,5]triazin-5-yl)azetidin-2-yl)(4-benzoylpiperazin-1-yl)methanone] — 26-fold higher, 13 nM
- Nc1nc(N2CC[C@H]2C(=O)N2CCN(C(=O)Nc3ccccc3)CC2)nc2nc(-c3ccco3)nn12 [Example 110, (S)-4-(1-(7-amino-2-(furan-2-yl)-[1,2,4]triazolo[1,5-a][1,3,5]triazine-5-yl)azetidin-2-carbonyl)-N-phenylpiperazin-1-carboxamide] — 24-fold higher, 12 nM
- CCCCN1CCN(C(=O)[C@@H]2CCN2c2nc(N)n3nc(-c4ccco4)nc3n2)CC1 [Example 111, (S)-(1-(7-amino-2-(furan-2-yl)-[1,2,4]triazolo[1,5-a][1,3,5]triazin-5-yl)azetidin-2-yl)(4-butylpiperazin-1-yl)methanone] — 16-fold higher, 8 nM
- Nc1nc(N2CC[C@H]2C(=O)N2CCN(c3ccc(F)cc3F)CC2)nc2nc(-c3ccco3)nn12 [Example 112, (S)-(1-(7-amino-2-(furan-2-yl)-[1,2,4]triazolo[1,5-a][1,3,5]triazin-5-yl)azetidin-2-yl)(4-(2,4-difluorophenyl)piperazin-1-yl)methanone] — 18-fold higher, 9 nM
- Nc1nc(N2CCC[C@H]2C(=O)N2CC(Cc3ccccc3)C2)nc2nc(-c3ccco3)nn12 [Example 113, (S)-(1-(7-amino-2-(furan-2-yl)-[1,2,4]triazolo[1,5-a][1,3,5]triazin-5-yl)pyrrolidin-2-yl)(3-benzylazetidin-1-yl)methanone] — 18-fold higher, 9 nM
- Nc1nc(N2CCC[C@H]2C(=O)N2CC(COc3ccccc3)C2)nc2nc(-c3ccco3)nn12 [Example 114, (S)-(1-(7-amino-2-(furan-2-yl)-[1,2,4]triazolo[1,5-a][1,3,5]triazin-5-yl)pyrrolidin-2-yl)(3-(phenoxymethyl)azetidin-1-yl)methanone] — 16-fold higher, 8 nM
- CC(C)NC(=O)N1CCN(C(=O)[C@@H]2CCCN2c2nc(N)n3nc(-c4ccco4)nc3n2)CC1 [Example 116, 4-((7-amino-2-(furan-2-yl)-[1,2,4]triazolo[1,5-a][1,3,5]triazin-5-yl)-L-prolyl)-N-isopropylpiperazin-1-carboxamide] — 22-fold higher, 11 nM
- Nc1nc(N2CCC[C@H]2C(=O)N2CCN(C(=O)NC3CCCCC3)CC2)nc2nc(-c3ccco3)nn12 [Example 117, 4-((7-amino-2-(furan-2-yl)-[1,2,4]triazolo[1,5-a][1,3,5]triazin-5-yl)-L-prolyl)-N-cyclohexylpiperazin-1-carboxamide] — 22-fold higher, 11 nM
- COCCN1CCN(C(=O)[C@H](C)Nc2nc(N)n3nc(-c4ccco4)nc3n2)CC1 [Example 118, (S)-2-((7-amino-2-(furan-2-yl)-[1,2,4]triazolo[1,5-a][1,3,5]triazin-5-yl)amino)-1-(4-(2-methoxyethyl)piperazin-1-yl)propan-1-one] — 42-fold higher, 21 nM
- C[C@H](Nc1nc(N)n2nc(-c3ccco3)nc2n1)C(=O)N1CCN(CC(C)(C)F)CC1 [Example 119, (S)-2-((7-amino-2-(furan-2-yl)-[1,2,4]triazolo[1,5-a][1,3,5]triazin-5-yl)amino)-1-(4-(2-fluoro-2-methylpropyl)piperazin-1-yl)propan-1-one] — 18-fold higher, 9 nM
- Nc1nc(N2CCC[C@H]2C(=O)N2CCN(c3ccccc3F)CC2)nc2nc(-c3ccco3)nn12 [Example 120, (S)-(1-(7-amino-2-(furan-2-yl)-[1,2,4]triazolo[1,5-a][1,3,5]triazin-5-yl)pyrrolidin-2-yl)(4-(2-fluorophenyl)piperazin-1-yl)methanone] — 12-fold higher, 6 nM
- Nc1nc(N2CCC[C@H]2C(=O)N2CCN(c3ccc(F)cc3)CC2)nc2nc(-c3ccco3)nn12 [Example 121, (S)-(1-(7-amino-2-(furan-2-yl)-[1,2,4]triazolo[1,5-a][1,3,5]triazin-5-yl)pyrrolidin-2-yl)(4-(4-fluorophenyl)piperazin-1-yl)methanone] — 12-fold higher, 6 nM
- COc1ccccc1N1CCN(C(=O)[C@@H]2CCCN2c2nc(N)n3nc(-c4ccco4)nc3n2)CC1 [Example 122, (S)-(1-(7-amino-2-(furan-2-yl)-[1,2,4]triazolo[1,5-a][1,3,5]triazin-5-yl)pyrrolidin-2-yl)(4-(2-methoxyphenyl)piperazin-1-yl)methanone] — 38-fold higher, 19 nM

From US20240217978A1 (CHONG KUN DANG PHARMACEUTICAL CORP., priority 2021, published 2024)
